Where a SMILES comes first, the peptide text is derived from it. Bridges are numbered along the chain shown (N, C = ends). Roman numbers before positions name the chains, in order. Triazole bridges read from a SMILES are 1,4-linked. Where no end group is shown, it is not given here. Side-chain parts run from the residue outwards. [ ]: non-standard residue; d: D form. The star is where a group is joined. X2 = CN1C(=C/C=C/C=C/C2=[N+](CCCCCC(=O)*)c3ccc(S(=O)(=O)[O-])cc3C2(C)C)C(C)(C)c2cc(S(=O)(=O)O)ccc21; X1 = CN1C(=CC=CC=CC2=[N+](CCCCCC(=O)*)c3ccc(S(=O)(=O)[O-])cc3C2(C)C)C(C)(C)c2cc(S(=O)(=O)O)ccc21; Lys(N3) = [N-]=[N+]=NCCCC[C@H](N)C(=O)O; Cit = NC(=O)NCCC[C@H](N)C(=O)O; d(hCys) = N[C@H](CCS)C(=O)O; PEG3 = NCCOCCOCCOCCC(=O)O; Pra = C#CC[C@H](N)C(=O)O
What was measured:
[1] = system: HEK293 cells stably expressing CMKLR1-eYFP; experiment: Live cell fluorescence microscopy of peptide internalization, cells with CMKLR1; assay type: cell-based; conditions: 1 μM Cy5-labeled peptide, 6 h, cells transfected with CMKLR1
Description: 2 Internalization of cyclic chemerin-9 conjugates. Live cell fluorescence microscopy of HEK293 and HEK293 cells stably expressed CMKLR1-eYFP. Cells were incubated with 1 μM Cy5-labeled peptide for 6 h before imaging. Blue = Hoechst33342, yellow = CMKLR1-eYFP, magenta = Cy5-peptide, scale bar ≙ 10 μm. […]
Salt Solution (HBSS, Biowest), pH 7.5) for 1 h. […]
Experiments were performed in technical duplicates and at least […]
HEK293 and HEK293_CMKLR1-eYFP cells were seeded at 15,000 cells per well into poly-ᴅ-lysine coated 96-well plates (black µCLEAR, Greiner). The next day, dilutions of the Cy5 -labeled peptides or Nutlin-3a […]
Cells were then washed and a resazurin-based cell viability […]
assay was performed. […]
Experiments […]
were performed in technical triplicates and at least twice.
Peptide internalization was evaluated by fluorescence microscopy. HEK293 and stably transfected […]
microscopy slides (ibidi). The next day, 1 µM Cy5-labeled peptides in cell culture medium were added to the cells and incubated for 6 h.
FluoroBriteTM DMEM (Gibco) with 10% FBS, 25 mM HEPES (pH 7.4) before imaging on an AxioVision Observer.Z1 microscope equipped with an apotome imaging system, an HXP120C light source, and a C-Apochromat 63x/1.20 W objective. All shown microscopy images are representative of at least two

HEK293_CMKLR1-eYFP cells = experiment: Fluorescence correlation spectroscopy (FCS) in the cytosol; conditions: 72 h; for cytosolic concentration, median (IQR) / cytosolic concentration, mean ± SD: FCS at 22 °C
Description: (§1) 3 Quantification of Cy5-labeled peptides in the cytosol. (A) RP-HPLC (λex = 640 nm, λem = 670 nm) of cleavage products of Cy5-labeled peptides in the lysate of HEK293_CMKLR1-eYFP cells after incubation with 1 μM peptide for different durations. […] (B) Representative fluorescence correlation spectroscopy (FCS) autocorrelation curves of Cy5-labeled peptides measured in the cytosol of HEK293_CMKLR1-eYFP cells after 72 h of incubation. Measured curves were fitted with a model for hindered 3D diffusion and diffusion time t D and anomalous coefficient α were calculated from the fit. Autocorrelation data represent mean ± SD of up to 10 consecutive 5 s measurements in a single cell. (C) Intracellular concentrations of Cy5-labeled peptides after 72 h incubation calculated from the fitted autocorrelation curves obtained in HEK293_CMKLR1-eYFP, HMEC-1, and THP-1 cells. Each data point corresponds to FCS measurements from the cytosol of a single cell. Median with the interquartile range is shown. Data from three independent experiments. Statistical comparison by log-normal unpaired t test. ***p ≤ 0.001, **p ≤ 0.01, *p ≤ 0.05, ns – not significant. […] (D) Calculated diffusion coefficients from the fitted autocorrelation curves. Median with the interquartile range is shown. […]
(§2) Fluorescence correlation spectroscopy (FCS)
(§3) Cytosolic delivery was quantified by FCS as has been described previously.3–5 Stably transfected HEK293_CMKLR1-eYFP cells were seeded at 30,000 cells per well and HMEC-1 cells at 10,000 cells per well into poly-ᴅ-lysine-coated 8-well microscopy slides (ibidi) in their respective cell culture medium. THP-1 cells were resuspended in fresh cell culture medium at 100,000 cells/mL in 500 µL cell culture medium in uncoated 12-well plates. The next day, dilutions of Cy5-labeled peptides were added to the cells and incubated for 72 h. Cell membranes of HMEC-1 and THP-1 cells were stained with 20 µg/mL Alexa Fluor 488-labeled concanavalin A (Invitrogen) for 20 min to enable identification of the cytosol. Nuclei were counterstained with Hoechst33342, and cells were washed with FluoroBriteTM DMEM (Gibco) + 25 mM HEPES (pH 7.4). After washing, THP-1 cells were transferred to poly-ᴅ-lysine-coated 8-well microscopy slides and allowed to sediment and adhere for 1 h. Confocal imaging and FCS were performed at 22 °C on a TCS SP8 FALCON microscope (Leica) with a Plan-Apochromat 40x/1,10 water immersion objective and HyD single molecule detector (Leica). The 638 nm laser line was used for excitation at 0.5% power and […]

HMEC-1 cells = experiment: as above; conditions: HMEC-1, applied concentration 1000 nM, 72 h; for cytosolic concentration, mean ± SD: FCS at 22 °C
Description: as §1, §2, §3

THP-1 cells = experiment: as above; conditions: THP-1, applied concentration 1000 nM, 72 h; for cytosolic concentration, mean ± SD: FCS at 22 °C
Description: as §1, §2, §3

MDA-MB-231 cells = experiment: as above; assay type: cell-based; conditions: 72 h
From the text: Fluorescence correlation spectroscopy (FCS) […] Prior to measurements, the correction collar of the objective […] 1 τ 1 1 (Equation 2) G(τ) = ∗ (1 - […] 1 + ( τ )α √1 + S2 ∗ ( τ )α τD τD 4

[2] = applied concentration 10 nM, single cells, three independent experiments
[3] = applied concentration 1000 nM (1 μM)
[4] = applied concentration 10000 nM (10 μM)

CC(=O)N[C@@H](CCCCn1cc(C[C@H](NC(=O)CCOCCOCCOCCNC(=O)[C@H](CCCNC(N)=O)NC(=O)[C@@H](NC(=O)[C@H](CCC(=O)O)NC(=O)CNC(=O)CNC(=O)[C@@H](CCCNC(=N)N)NC(=O)[C@@H](CC(C)C)NC(=O)[C@@H](CC(C)C)NC(=O)[C@@H](C)NC(=O)[C@@H](CCC(=O)O)NC(=O)[C@@H](Cc2ccccc2)NC(=O)[C@@H](C)NC(=O)[C@@H](CC(C)C)NC(=O)[C@H]2CCCN2C(=O)[C@@H](Cc2c[nH]c3ccccc23)NC(=O)[C@@H](Cc2c[nH]c3ccccc23)NC(=O)[C@@H](CC(=O)O)NC(=O)CCOCCOCCOCCNC(=O)CCCCC[N+]2=C(/C=C/C=C/C=C3N(C)c4ccc(S(=O)(=O)O)cc4C3(C)C)C(C)(C)c3cc(S(=O)(=O)[O-])ccc32)C(C)C)C(N)=O)nn1)C(=O)N[C@@H](Cc1ccc(O)cc1)C(=O)N[C@@H](Cc1ccccc1)C(=O)N1CCC[C@H]1C(=O)N[C@@H]1CCSSC[C@@H](C(=O)O)NC(=O)[C@H](Cc2ccccc2)NC(=O)[C@H](C)NC(=O)[C@H](Cc2ccccc2)NC(=O)[C@H](CCC(N)=O)NC1=O [2Cy] (I: {X2-PEG3}-[dD][dW][dW][dP][dL][dA][dF][dE][dA][dL][dL][dR]GGEV[Cit][PEG3][Pra]-NH2 / II: Ac-[Lys(N3)]YFP[d(hCys)]QFAFC-OH; triazole I:19-II:1; disulfide II:5-II:10)
internalization [1]: internalized efficiently
cytosolic concentration, median (IQR) (HEK293_CMKLR1-eYFP cells; applied concentration 10 nM): 6.2 (3.1–9.1) nM
cytosolic concentration, mean ± SD (HEK293_CMKLR1-eYFP cells; [2]): 8.4 ± 7.8 nM
cytosolic concentration, mean ± SD (HEK293_CMKLR1-eYFP cells; applied concentration 100 nM): 11.6 ± 14.6 nM
cytosolic concentration, median (IQR) (HEK293_CMKLR1-eYFP cells; applied concentration 100 nM): 6.8 (3.3–13.0) nM
cytosolic concentration, median (IQR) (HEK293_CMKLR1-eYFP cells; [3]): 43.1 (19.0–99.4) nM
cytosolic concentration, mean ± SD (HEK293_CMKLR1-eYFP cells; applied concentration 1000 nM): 78.6 ± 83.2 nM
cytosolic concentration, median (IQR) (HEK293_CMKLR1-eYFP cells; [4]): 106 nM
cytosolic concentration, mean ± SD (HEK293_CMKLR1-eYFP cells; applied concentration 10000 nM): 161 ± 128 nM
cytosolic concentration, median (IQR) (HMEC-1 cells): 6.4 (3.7–9.3) nM
cytosolic concentration, mean ± SD (HMEC-1 cells): 7.8 ± 5.4 nM
cytosolic concentration, median (IQR) (THP-1 cells): 14.0 (7.1–26.6) nM
cytosolic concentration, mean ± SD (THP-1 cells): 22.7 ± 25.1 nM
cytosolic FCS measurement (MDA-MB-231 cells): no successful measurements were obtained

I: GSVSHHHHHHGGHHHH[PEG3][dK]([PEG3-X1])[dD][dW][dW][dP][dL][dA][dF][dE][dA][dL][dL][dR]GEV[Cit][PEG3][Pra]-NH2 / II: Ac-[Lys(N3)]YFP[d(hCys)]QFAFC-OH (triazole I:36-II:1; disulfide II:5-II:10) [3Cy]
internalization [1]: internalized efficiently
cellular stress (HEK293_CMKLR1-eYFP cells; 10 μM, data not shown): showed signs of cellular stress
cytosolic concentration, median (IQR) (HEK293_CMKLR1-eYFP cells; applied concentration 10 nM): 5.5 (3.2–9.5) nM
cytosolic concentration, mean ± SD (HEK293_CMKLR1-eYFP cells; [2]): 6.6 ± 5.0 nM
cytosolic concentration, mean ± SD (HEK293_CMKLR1-eYFP cells; applied concentration 100 nM): 23.5 ± 40.2 nM
cytosolic concentration, median (IQR) (HEK293_CMKLR1-eYFP cells; applied concentration 100 nM): 10.2 (5.2–32.1) nM
cytosolic concentration, median (IQR) (HEK293_CMKLR1-eYFP cells; [3]): 98.8 nM
cytosolic concentration, mean ± SD (HEK293_CMKLR1-eYFP cells; applied concentration 1000 nM): 138 ± 122 nM
cytosolic concentration, median (IQR) (HEK293_CMKLR1-eYFP cells; [4]): 228 nM
cytosolic concentration, mean ± SD (HEK293_CMKLR1-eYFP cells; applied concentration 10000 nM): 308 ± 257 nM
cytosolic concentration, median (IQR) (HMEC-1 cells): 7.0 (5.2–12.4) nM
cytosolic concentration, mean ± SD (HMEC-1 cells): 20.1 ± 57.2 nM
cytosolic concentration, median (IQR) (THP-1 cells): 22.6 (12.7–38.5) nM
cytosolic concentration, mean ± SD (THP-1 cells): 40.3 ± 77.12 nM
cytosolic FCS measurement (MDA-MB-231 cells): no successful measurements were obtained

— publication PMC12814185, “Receptor-Mediated Shuttling of a D‑Amino Acid Peptide Achieves High Nanomolar Cytosolic Concentrations” (Journal of the American Chemical Society, 2025)
